Source: patent US6911445B2, “Antidepressant cycloalkylamine derivatives of heterocycle-fused benzodioxans” (Wyeth, priority 2002, dated 2005)
pIC50, pKi: −log10 of the molar value. Counter-ions that a name gives are not always drawn.

What was measured:
[1] = biological target: T1, cloned human 5HT1A receptors (Homo sapiens, UniProt P08908); assay: 35S-GTPγS binding assay, membranes containing cloned human 5HT1A receptors; format: biochemical; conditions: for pIC50: antagonist potency, reversal of the standard agonist 8-OH-DPAT, read-out: 5HT1A Function IC50; for 5HT1A Function (Imax): maximum inhibitory effect, value in parentheses
T1 construct: expressed in transfected cells
T1 sequence (P08908 1-422): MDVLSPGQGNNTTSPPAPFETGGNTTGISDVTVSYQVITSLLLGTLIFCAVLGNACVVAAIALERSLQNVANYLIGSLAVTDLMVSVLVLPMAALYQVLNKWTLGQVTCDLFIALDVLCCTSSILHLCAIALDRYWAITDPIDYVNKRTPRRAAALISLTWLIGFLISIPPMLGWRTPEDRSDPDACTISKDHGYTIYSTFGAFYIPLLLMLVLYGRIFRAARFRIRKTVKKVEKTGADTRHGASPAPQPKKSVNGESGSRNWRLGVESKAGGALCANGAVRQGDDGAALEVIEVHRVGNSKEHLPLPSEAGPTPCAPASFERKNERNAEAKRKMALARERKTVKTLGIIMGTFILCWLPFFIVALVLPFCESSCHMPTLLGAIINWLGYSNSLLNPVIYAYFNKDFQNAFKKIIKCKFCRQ
Method: Antagonist activity at 5HT1A receptors was established by using a ^35S-GTPγS binding assay similar to that used by Lazareno and Birdsall (Br. J. Pharmacol. 109:1120, 1993), in which the test compound's ability to affect the binding of ^35S-GTPγS to membranes containing cloned human 5HT1A receptors was determined. Agonists produce an increase in binding whereas antagonists produce no increase but rather reverse the effects of the standard agonist 8-OH-DPAT. The test compound's maximum inhibitory effect is represented as the Imax, while its potency is defined by the IC50.

serotonin transporter = biological target: T2, serotonin transporter (Rattus norvegicus, UniProt P31652); assay: Displacement of 3H-paroxetine from male rat frontal cortical membranes (serotonin transporter affinity); format: binding; conditions: read-out: 5-HT Transporter Affinity Ki
T2 construct: displace ^3H-paroxetine from male rat frontal cortical membranes; from tissue; host or cells: male rat frontal cortex membranes
T2 sequence (P31652 whole entry): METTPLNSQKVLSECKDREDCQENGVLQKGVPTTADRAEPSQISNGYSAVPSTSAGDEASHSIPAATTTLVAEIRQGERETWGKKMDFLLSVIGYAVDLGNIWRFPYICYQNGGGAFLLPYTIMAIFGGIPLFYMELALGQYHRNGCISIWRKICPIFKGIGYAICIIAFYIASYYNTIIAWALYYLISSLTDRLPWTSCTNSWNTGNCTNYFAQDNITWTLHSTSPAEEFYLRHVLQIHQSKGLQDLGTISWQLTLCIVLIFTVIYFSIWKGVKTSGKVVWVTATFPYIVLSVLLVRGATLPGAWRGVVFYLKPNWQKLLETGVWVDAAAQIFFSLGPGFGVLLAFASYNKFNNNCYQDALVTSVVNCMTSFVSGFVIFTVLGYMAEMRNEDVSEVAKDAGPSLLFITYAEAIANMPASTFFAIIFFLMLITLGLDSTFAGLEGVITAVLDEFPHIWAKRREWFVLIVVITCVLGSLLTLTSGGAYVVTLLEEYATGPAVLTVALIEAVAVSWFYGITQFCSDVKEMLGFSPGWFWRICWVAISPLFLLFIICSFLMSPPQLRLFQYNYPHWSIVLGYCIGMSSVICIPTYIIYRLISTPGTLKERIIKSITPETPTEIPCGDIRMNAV

human 5HT1A receptors = biological target: T3, human 5HT1A receptors (Homo sapiens, UniProt P08908); assay: Displacement of [3H] 8-OH-DPAT from 5HT1A receptor in stably transfected CHO cells; format: binding; conditions: CHO cells with human 5HT1A receptors, read-out: 5HT1A Receptor Affinity Ki
T3 construct: expressed in transfected cells; host or cells: CHO cells
T3 sequence (P08908 1-422): T1 sequence (P08908 1-422)
From the text: High affinity for the serotonin 5HT1A receptor was established by testing the claimed compound's ability to displace [^3H] 8-OH-DPAT (dipropylamino-tetralin) from the 5HT1A serotonin receptor following a modification of the procedure of Hall, et al., J. Neurochem. 44, 1685 (1985), which utilizes CHO cells stably transfected with human 5HT1A receptors.

SMILES | melting point | pIC50 [1] | 5HT1A Function (Imax) [1] [%] | pKi (serotonin transporter) | pKi (human 5HT1A receptors) | EC50 ([1]; given as EC50, increase in 35S-GTPγS binding (agonist), read-out: 5HT1A Function EC50) [nM] | Emax ([1]; given as Emax, agonist effect, read-out: 5HT1A Function Emax) [%]
Cc1nc2ccc3c(c2o1)O[C@@H](CN[C@H]1CC[C@H](c2c[nH]c4ccc(F)cc24)C1)CO3 (mixture of isomers) [Example 10, N-[(trans)-3-(5-Fluoro-1H-indol-3-yl)cyclopentyl]-N-{[(8S)-2-methyl-7,8-dihydro[1,4]dioxino[2,3-g][1,3]benzoxazol-8-yl]methyl}amine] | 79 to 82 °C | 6.76 | 85 | 8.86 | 7.54 | – | –
Cc1nc2ccc3c(c2o1)O[C@@H](CN[C@H]1CC[C@@H](c2c[nH]c4ccc(F)cc24)C1)CO3 (mixture of isomers) [Example 11, N-[(cis)-3-(5-Fluoro-1H-indol-3-yl)cyclopentyl]-N-{[(8S)-2-methyl-7,8-dihydro[1,4]dioxino[2,3-g][1,3]benzoxazol-8-yl]methyl}amine] | 79 to 82 °C | 6.56 | 100 | 8.84 | 7.79 | – | –
Cc1ccc2c3c(ccc2n1)OCC(CNC1CCC(c2cn(C)c4ccc(F)cc24)C1)O3 (single isomer, unassigned) (as salt: fumarate) [Example 5] | 200 to 201 °C | – | – | – | – | – | –
Cc1ccc2c3c(ccc2n1)OCC(CNC1CCC(c2cn(C)c4ccc(F)cc24)C1)O3 (single isomer, unassigned) [Example 5-Isomer A, N-[(1R*,3S*)-3-(5-fluoro-1-methyl-1H-indol-3-yl)cyclopentyl]-N-{](2S)-8-methyl-2,3-dihydro[1,41]dioxino[2,3-f]quinoli-2-yl]methyl}amine] | – | 6.72 | 88 | 8.68 | 7.90 | – | –
Cc1ccc2c3c(ccc2n1)OCC(CNC1CCC(c2cn(C)c4ccc(F)cc24)C1)O3 (single isomer, unassigned) [Example 5-Isomer B, N-[(1S*,3R*)-3-(5-fluoro-1-methyl-1H-indol-3-yl)cyclopentyl]-N-{[(2S)-8-methyl-2,3-dihydro[1,4]dioxino[2,3-f]quinoli-2-yl]methyl}amine] | – | 6.80 | 97 | 8.52 | 8.72 | – | –
Cc1ccc2c3c(ccc2n1)OCC(CNC1CCC(c2cn(C)c4ccc(F)cc24)C1)O3 (single isomer, unassigned) [Example 5] | – | 6.85 | 69 | 8.43 | 8.27 | – | –

Next, values leading:

melting point | pIC50 [1] | 5HT1A Function (Imax) [1] [%] | pKi (serotonin transporter) | pKi (human 5HT1A receptors) | EC50 ([1]; given as EC50, increase in 35S-GTPγS binding (agonist), read-out: 5HT1A Function EC50) [nM] | Emax ([1]; given as Emax, agonist effect, read-out: 5HT1A Function Emax) [%] | SMILES
234 to 235 °C | – | – | – | – | – | – | Cc1ccc2c3c(ccc2n1)OC[C@H](CN[C@H]1CC[C@@H](c2c[nH]c4ccc(F)cc24)C1)O3 (mixture of isomers) (as salt: HCl) (hydrate or solvate) [Example 3, N-[(cis)-3-(5-fluoro-1H-indol-3-yl)cyclopentyl]-N-{[(2S)-8-methyl-2,3-dihydro[1,4]dioxino[2,3-f]quinolin-2-yl]methyl}amine]
198 to 199 °C (dec.) | – | – | – | – | – | – | Cc1ccc2c3c(ccc2n1)OC[C@H](CN(C)[C@@H]1CC[C@H](c2c[nH]c4ccc(F)cc24)C1)O3 (relative stereo) (as salt: fumarate) [Example 13, N-[(1R*,3S*)-3-(5-fluoro-1H-indol-3-yl)cyclopentyl]-N-methyl-N-{[(2S)-8-methyl-2,3-dihydro[1,4]dioxino[2,3-f]quinolin-2-yl]methyl}amine]
– | 5.84 | 100 | 9.17 | 7.58 | – | – | Cc1ccc2c3c(ccc2n1)OC[C@H](CN[C@@H]1CC[C@@H](c2c[nH]c4ccc(F)cc24)C1)O3 (single isomer, unassigned) [Example 4-Isomer B, N-[(1R*,3R*)-3-(5-fluoro-1H-indol-3-yl)cyclopentyl]-N-{[(2S)-8-methyl-2,3-dihydro[1,4]dioxino[2,3-f]quinolin-2-yl]methyl}amine]
– | 6.64 | 55 | 8.78 | 7.69 | – | – | Cc1ccc2c3c(ccc2n1)OCC(CNC1CCC(c2cn(C)c4ccc(F)cc24)C1)O3 (single isomer, unassigned) [Example 6]
– | 7.36 | 84 | 9.21 | 8.04 | – | – | Cc1ccc2c3c(ccc2n1)OCC(CNC1CCC(c2c[nH]c4ccc(F)cc24)C1)O3 [Example 4, N-[(trans)-3-(5-fluoro-1H-indol-3-yl)cyclopentyl]-N-{[(2S)-8-methyl-2,3-dihydro[1,4]dioxino[2,3-f]quinoli-2-yl]methyl}amine]
– | – | – | 8.38 | 7.84 | 66 | 95 | Cc1ccc2c3c(ccc2n1)OC[C@H](CN[C@H]1CC[C@H](c2c[nH]c4ccc(F)cc42)CC1)O3 [Example 8, (trans)-N-[4-(5-fluoro-1H-indol-3-yl)cyclohexyl]-N-{[(2S)-8-methyl-2,3-dihydro[1,4]dioxino[2,3-f]quinolin-2-yl]methyl}amine]
80 to 82 °C | – | – | 7.96 | 7.07 | – | – | Cc1nc2ccc3c(c2o1)O[C@@H](CN[C@H]1CC[C@@H](c2c[nH]c4ccc(F)cc42)CC1)CO3 [Example 12]
